Data taken from US20220324835A1 (Nurix Therapeutics, Inc., priority 2018, published 2022).
Where two headings read alike, the source gives them in different places.

Legend:
T-cell [1] = assay: CD25 cell surface staining on T-cells co-stimulated with anti-CD3 and anti-CD28 antibody (Biological Example 2); assay type: cell-based, human; settings: Homo sapiens, T-cell, fold change over baseline, primary human total T-cells, read-out: CD25 staining Anti-CD3/Anti-CD28 stimulation; for fold induction at 0.3 µM: 0.3 μM Cbl-b inhibitor; for fold induction at 1 µM: 1 μM Cbl-b inhibitor; for fold induction at 4 µM: 4 μM Cbl-b inhibitor
Procedure, shortened: (§1)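 T-cells were stimulated with anti-CD3 antibody alone or with anti-CD28 antibody, in the presence or absence of Cbl-b inhibitor. IL-2 secretion or CD25 surface staining was measured, and values expressed as fold over the uninhibited baseline […].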

T-cell [2] = assay: CD25 cell surface staining on T-cells stimulated with anti-CD3 antibody alone (Biological Example 2); assay type: cell-based, human; settings: T-cell, fold change over baseline, primary human total T-cells, read-out: CD25 staining Anti-CD3 stimulation; for fold induction at 1 µM: 1 μM Cbl-b inhibitor; for fold induction at 8 µM: 8 μM Cbl-b inhibitor
T-cell [3] = assay: IL-2 secretion from T-cells co-stimulated with anti-CD3 and anti-CD28 antibody (Biological Example 2); assay type: cell-based, human; settings: Homo sapiens, T-cell, fold change over baseline, primary human total T-cells, read-out: IL-2 secretion Anti-CD3/Anti-CD28 stimulation; for fold induction at 0.3 µM: 0.3 μM Cbl-b inhibitor; for fold induction at 1 µM: 1 μM Cbl-b inhibitor; for fold induction at 4 µM: 4 μM Cbl-b inhibitor
Procedure, shortened: as §1

Cbl-b = Cbl-b (Homo sapiens, UniProt Q13191); assay: Cbl-b activity assay (Cbl-b inhibition assay), TR-FRET of Cbl-b interaction with UbcH5B-Ub; assay type: biochemical
Cbl-b, sequence (Q13191 36-427): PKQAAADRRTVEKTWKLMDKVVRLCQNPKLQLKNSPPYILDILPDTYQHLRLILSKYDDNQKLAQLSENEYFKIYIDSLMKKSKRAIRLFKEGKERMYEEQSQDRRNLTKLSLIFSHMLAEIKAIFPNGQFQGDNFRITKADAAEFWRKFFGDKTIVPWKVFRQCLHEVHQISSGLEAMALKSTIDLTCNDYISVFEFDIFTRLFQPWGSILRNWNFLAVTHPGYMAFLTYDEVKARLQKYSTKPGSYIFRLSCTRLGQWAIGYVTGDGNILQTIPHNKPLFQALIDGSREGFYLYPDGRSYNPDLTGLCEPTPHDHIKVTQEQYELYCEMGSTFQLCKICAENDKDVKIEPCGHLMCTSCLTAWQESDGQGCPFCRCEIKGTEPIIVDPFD
Procedure, shortened: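 UbcH5B (C85K) conjugated to N-terminally Bodipy-Fluorescein-labeled ubiquitin served as the fluorescent partner. After compound preincubation, Src kinase (60 nM) with 1 mM ATP and 5 mM MgCl2 (final) was added for 1.5 h, followed by a further 1 h incubation. Some values were obtained with 50 mM NaCl and 30 nM Src.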

[4] = assay buffer with 100 mM NaCl, 60 nM Src kinase, read-out: Cbl-b activity IC50

For `C[C@H](Cc1nncn1C)c1cccc(NC(=O)c2cccc(C(F)(F)CO)n2)c1` [Compound 188, (R)-6-(1,1-difluoro-2-hydroxyethyl)-N-(3-(1-(4-methyl-4H-1,2,4-triazol-3-yl)propan-2-yl)phenyl)picolinamide], the fold induction at 0.3 µM (T-cell [1]) was 1.01 to 1.3, the fold induction at 1 µM (T-cell [1]) was 1.31 to 1.5 and the fold induction at 4 µM (T-cell [1]) was greater than 1.76. It also gave a fold induction at 1 µM (T-cell [2]) of less than 0.6, a fold induction at 8 µM (T-cell [2]) of less than 0.6 and a fold induction at 0.3 µM (T-cell [3]) of less than 1. For the same compound, the fold induction at 1 µM (T-cell [3]) was less than 1, the fold induction at 4 µM (T-cell [3]) was less than 1 and the IC50 (Cbl-b; [4]) was 0.1 to 0.3 µM.
`C[C@H](Sc1nncn1C)c1cccc(NC(=O)c2ccc(Cl)c(C(F)(F)F)n2)c1` [Compound 51, (S)-5-chloro-N-(3-(1-((4-methyl-4H-1,2,4-triazol-3-yl)thio)ethyl)phenyl)-6-(trifluoromethyl)picolinamide] was tested, and the fold induction at 0.3 µM (T-cell [1]) was 1.01 to 1.3, the fold induction at 1 µM (T-cell [1]) was 1.01 to 1.3 and the fold induction at 4 µM (T-cell [1]) was 1.01 to 1.3. The fold induction at 1 µM (T-cell [2]) was 0.801 to 1, the fold induction at 8 µM (T-cell [2]) was greater than 1 and the fold induction at 0.3 µM (T-cell [3]) was less than 1. The fold induction at 1 µM (T-cell [3]) was less than 1, the fold induction at 4 µM (T-cell [3]) was 1.01 to 2.5 and the IC50 (Cbl-b; [4]) was 0.1 to 0.3 µM.
With `C[C@H](Cc1nncn1C1CC1)c1cccc(N2Cc3c(cccc3C(F)(F)F)C2=O)c1` [Compound 265, (R)-2-(3-(1-(4-cyclopropyl-4H-1,2,4-triazol-3-yl)propan-2-yl)phenyl)-4-(trifluoromethyl)isoindolin-1-one] the fold induction at 0.3 µM (T-cell [1]) was 1.01 to 1.3, the fold induction at 1 µM (T-cell [1]) was 1.01 to 1.3 and the fold induction at 4 µM (T-cell [1]) was 1.01 to 1.3. For the same compound, the fold induction at 1 µM (T-cell [2]) was 0.601 to 0.8, the fold induction at 8 µM (T-cell [2]) was 0.801 to 1 and the fold induction at 0.3 µM (T-cell [3]) was less than 1. The fold induction at 1 µM (T-cell [3]) was 1.01 to 2.5, the fold induction at 4 µM (T-cell [3]) was 1.01 to 2.5 and the IC50 (Cbl-b; [4]) was 0.301 to 1 µM.
In the case of `C[C@H](Cc1nncn1C)c1cccc(NC(=O)c2cc(C3(O)COC3)cc(C(F)(F)F)n2)c1` [Compound 190, (R)-4-(3-hydroxyoxetan-3-yl)-N-(3-(1-(4-methyl-4H-1,2,4-triazol-3-yl)propan-2-yl)phenyl)-6-(trifluoromethyl)picolinamide], the fold induction at 0.3 µM (T-cell [1]) is reported as greater than 1.76, the fold induction at 1 µM (T-cell [1]) is reported as greater than 1.76 and the fold induction at 4 µM (T-cell [1]) is reported as greater than 1.76. The fold induction at 1 µM (T-cell [2]) was 0.601 to 0.8, the fold induction at 8 µM (T-cell [2]) was greater than 1 and the fold induction at 0.3 µM (T-cell [3]) was less than 1. It also gave a fold induction at 1 µM (T-cell [3]) of 1.01 to 2.5, a fold induction at 4 µM (T-cell [3]) of 5 to 7.5 and an IC50 (Cbl-b; [4]) of 0.1 to 0.3 µM.
Work on `Cc1cc(C)nc(C(=O)Nc2cccc([C@H](C)Sc3nncn3C)c2)c1` [Compound 56, (S)-4,6-dimethyl-N-(3-(1-((4-methyl-4H-1,2,4-triazol-3-yl)thio)ethyl)phenyl)picolinamide] yielded a fold induction at 0.3 µM (T-cell [1]) of 1.01 to 1.3, a fold induction at 1 µM (T-cell [1]) of 1.01 to 1.3 and a fold induction at 4 µM (T-cell [1]) of 1.01 to 1.3. For the same compound, the fold induction at 1 µM (T-cell [2]) was less than 0.6, the fold induction at 8 µM (T-cell [2]) was 0.801 to 1 and the fold induction at 0.3 µM (T-cell [3]) was 2.51 to 5. It also gave a fold induction at 1 µM (T-cell [3]) of 5 to 7.5, a fold induction at 4 µM (T-cell [3]) greater than 7.5 and an IC50 (Cbl-b; [4]) of 0.301 to 1 µM.
Work on `C[C@H](Sc1nncn1C)c1cccc(NC(=O)c2cc(C(F)(F)F)cc(C3CC3)n2)c1` [Compound 69, (S)-6-cyclopropyl-N-(3-(1-((4-methyl-4H-1,2,4-triazol-3-yl)thio)ethyl)phenyl)-4-(trifluoromethyl)picolinamide] yielded a fold induction at 0.3 µM (T-cell [1]) of 1.01 to 1.3, a fold induction at 1 µM (T-cell [1]) of 1.01 to 1.3 and a fold induction at 4 µM (T-cell [1]) of 1.31 to 1.5. It also gave a fold induction at 1 µM (T-cell [2]) of less than 0.6, a fold induction at 8 µM (T-cell [2]) of less than 0.6 and a fold induction at 0.3 µM (T-cell [3]) of less than 1. It also gave a fold induction at 1 µM (T-cell [3]) of less than 1, a fold induction at 4 µM (T-cell [3]) of 1.01 to 2.5 and an IC50 (Cbl-b; [4]) of 0.301 to 1 µM.
For `Cc1ncc(C(=O)Nc2cccc([C@H](C)Sc3nncn3C)c2)nc1C1CC1` [Compound 70, (S)-6-cyclopropyl-5-methyl-N-(3-(1-((4-methyl-4H-1,2,4-triazol-3-yl)thio)ethyl)phenyl)pyrazine-2-carboxamide], the fold induction at 0.3 µM (T-cell [1]) was 1.31 to 1.5, the fold induction at 1 µM (T-cell [1]) was 1.31 to 1.5 and the fold induction at 4 µM (T-cell [1]) was 1.51 to 1.75. It also gave a fold induction at 1 µM (T-cell [2]) of 0.801 to 1, a fold induction at 8 µM (T-cell [2]) of 0.801 to 1 and a fold induction at 0.3 µM (T-cell [3]) of less than 1. For the same compound, the fold induction at 1 µM (T-cell [3]) was 1.01 to 2.5, the fold induction at 4 µM (T-cell [3]) was 2.51 to 5 and the IC50 (Cbl-b; [4]) was 0.1 to 0.3 µM.
`Cc1conc1C[C@@H](C)c1cccc(NC(=O)c2ccnc(C(F)(F)F)n2)c1` [Compound 213a, (R)-N-(3-(1-(4-methylisoxazol-3-yl)propan-2-yl)phenyl)-2-(trifluoromethyl)pyrimidine-4-carboxamide] showed a fold induction at 0.3 µM (T-cell [1]) of 1.01 to 1.3, a fold induction at 1 µM (T-cell [1]) of 1.01 to 1.3 and a fold induction at 4 µM (T-cell [1]) of 1.01 to 1.3. It also gave a fold induction at 1 µM (T-cell [2]) of 0.801 to 1, a fold induction at 8 µM (T-cell [2]) greater than 1 and a fold induction at 0.3 µM (T-cell [3]) of 1.01 to 2.5. It also gave a fold induction at 1 µM (T-cell [3]) of 1.01 to 2.5, a fold induction at 4 µM (T-cell [3]) of 2.51 to 5 and an IC50 (Cbl-b; [4]) of 0.1 to 0.3 µM.
`C[C@H](Sc1nncn1C)c1cccc(NC(=O)c2cc(C(F)(F)F)ccn2)c1` [Compound 32, (S)-N-(3-(1-((4-Methyl-4H-1,2,4-triazol-3-yl)thio)ethyl)phenyl)-4-(trifluoromethyl)picolinamide] was tested, and the fold induction at 0.3 µM (T-cell [1]) was 1.01 to 1.3, the fold induction at 1 µM (T-cell [1]) was 1.01 to 1.3 and the fold induction at 4 µM (T-cell [1]) was 1.01 to 1.3. The fold induction at 1 µM (T-cell [2]) was 0.601 to 0.8, the fold induction at 8 µM (T-cell [2]) was greater than 1 and the fold induction at 0.3 µM (T-cell [3]) was less than 1. The fold induction at 1 µM (T-cell [3]) was 1.01 to 2.5, the fold induction at 4 µM (T-cell [3]) was 1.01 to 2.5 and the IC50 (Cbl-b; * assay buffer containing 50 mM NaCl instead of 100 mM NaCl and 30 nM Src kinase instead of 60 nM, read-out: Cbl-b activity IC50 (μM)*) was 1 to 3 µM. For the same compound, the IC50 (Cbl-b; [4]) was 3 to 10 µM.
`C[C@H](Sc1nncn1C)c1cc(F)cc(N2Cc3c(cccc3C(F)(F)F)C2=O)c1` [Compound 168a, 2-[3-fluoro-5-[(1S)-1-[(4-methyl-1,2,4-triazol-3-yl)sulfanyl]ethyl]phenyl]-4-(trifluoromethyl)isoindolin-1-one] was tested, and the fold induction at 0.3 µM (T-cell [1]) was 1.01 to 1.3, the fold induction at 1 µM (T-cell [1]) was 1.01 to 1.3 and the fold induction at 4 µM (T-cell [1]) was 1.01 to 1.3. For the same compound, the fold induction at 1 µM (T-cell [2]) was less than 0.6, the fold induction at 8 µM (T-cell [2]) was 0.801 to 1 and the fold induction at 0.3 µM (T-cell [3]) was less than 1. It also gave a fold induction at 1 µM (T-cell [3]) of 1.01 to 2.5, a fold induction at 4 µM (T-cell [3]) of less than 1 and an IC50 (Cbl-b; [4]) of 0.1 to 0.3 µM.
`C[C@H](Sc1nncn1C)c1cccc(NC(=O)c2cc(C(=O)N3CC(O)C3)ccn2)c1` [Compound 148, (S)-4-(3-hydroxyazetidine-1-carbonyl)-N-(3-(1-((4-methyl-4H-1,2,4-triazol-3-yl)thio)ethyl)phenyl)picolinamide] gave a fold induction at 0.3 µM (T-cell [1]) of less than 1, a fold induction at 1 µM (T-cell [1]) of less than 1 and a fold induction at 4 µM (T-cell [1]) of less than 1. It also gave a fold induction at 1 µM (T-cell [2]) of less than 0.6, a fold induction at 8 µM (T-cell [2]) of 0.601 to 0.8 and a fold induction at 0.3 µM (T-cell [3]) of less than 1. For the same compound, the fold induction at 1 µM (T-cell [3]) was less than 1, the fold induction at 4 µM (T-cell [3]) was less than 1 and the IC50 (Cbl-b; [4]) was 0.301 to 1 µM.
`C[C@H](Sc1nncn1C)c1ccnc(NC(=O)c2cc3c(C(F)(F)F)cccc3[nH]2)c1` [Compound 120, N-[4-[(1S)-1-[(4-methyl-1,2,4-triazol-3-yl)sulfanyl]ethyl]-2-pyridyl]-4-(trifluoromethyl)-1H-indole-2-carboxamide] was tested, and the fold induction at 0.3 µM (T-cell [1]) was less than 1, the fold induction at 1 µM (T-cell [1]) was less than 1 and the fold induction at 4 µM (T-cell [1]) was less than 1. The fold induction at 1 µM (T-cell [2]) was less than 0.6, the fold induction at 8 µM (T-cell [2]) was less than 0.6 and the fold induction at 0.3 µM (T-cell [3]) was 1.01 to 2.5. It also gave a fold induction at 1 µM (T-cell [3]) of 1.01 to 2.5, a fold induction at 4 µM (T-cell [3]) of 1.01 to 2.5 and an IC50 (Cbl-b; [4]) of 0.1 to 0.3 µM.
Work on `Cc1ccc(C(=O)Nc2cccc([C@H](C)Cc3nnc[nH]3)c2)nc1C1CC1` [Compound 212, (R)-N-(3-(1-(4H-1,2,4-triazol-3-yl)propan-2-yl)phenyl)-6-cyclopropyl-5-methylpicolinamide] yielded a fold induction at 0.3 µM (T-cell [1]) of 1.51 to 1.75, a fold induction at 1 µM (T-cell [1]) of 1.51 to 1.75 and a fold induction at 4 µM (T-cell [1]) greater than 1.76. It also gave a fold induction at 1 µM (T-cell [2]) of less than 0.6, a fold induction at 8 µM (T-cell [2]) of less than 0.6 and a fold induction at 0.3 µM (T-cell [3]) of 1.01 to 2.5. The fold induction at 1 µM (T-cell [3]) was 1.01 to 2.5, the fold induction at 4 µM (T-cell [3]) was 1.01 to 2.5 and the IC50 (Cbl-b; [4]) was 0.301 to 1 µM.
